Laboratory results taken from ChEMBL document CHEMBL5236589, “Design and Structural Optimization of Orally Bioavailable SOS1 Inhibitors for the Treatment of KRAS-Driven Carcinoma” (J Med Chem, 2022).

Key:
[1] = Inhibition of SOS1/KRAS G13D mutant protein-protein interaction in human DLD-1 cells assessed as ERK1/2 phosphorylation measured after 1 hr by homogeneous time-resolved fluorescence (HTRF) method; assay type: cell-based; conditions: DLD-1, 1 h
SOS1-KRAS = SOS1-KRAS (Homo sapiens, UniProt Q07889); assay: Inhibition of human recombinant SOS1 (residue 564-1049)/KRAS G12C mutant protein-protein interaction at incubated for 25 degC for 60 mins by homogeneous time-resolved fluorescence (HTRF) method
Chain of SOS1-KRAS (Q07889 whole entry, looked up, stated change not applied): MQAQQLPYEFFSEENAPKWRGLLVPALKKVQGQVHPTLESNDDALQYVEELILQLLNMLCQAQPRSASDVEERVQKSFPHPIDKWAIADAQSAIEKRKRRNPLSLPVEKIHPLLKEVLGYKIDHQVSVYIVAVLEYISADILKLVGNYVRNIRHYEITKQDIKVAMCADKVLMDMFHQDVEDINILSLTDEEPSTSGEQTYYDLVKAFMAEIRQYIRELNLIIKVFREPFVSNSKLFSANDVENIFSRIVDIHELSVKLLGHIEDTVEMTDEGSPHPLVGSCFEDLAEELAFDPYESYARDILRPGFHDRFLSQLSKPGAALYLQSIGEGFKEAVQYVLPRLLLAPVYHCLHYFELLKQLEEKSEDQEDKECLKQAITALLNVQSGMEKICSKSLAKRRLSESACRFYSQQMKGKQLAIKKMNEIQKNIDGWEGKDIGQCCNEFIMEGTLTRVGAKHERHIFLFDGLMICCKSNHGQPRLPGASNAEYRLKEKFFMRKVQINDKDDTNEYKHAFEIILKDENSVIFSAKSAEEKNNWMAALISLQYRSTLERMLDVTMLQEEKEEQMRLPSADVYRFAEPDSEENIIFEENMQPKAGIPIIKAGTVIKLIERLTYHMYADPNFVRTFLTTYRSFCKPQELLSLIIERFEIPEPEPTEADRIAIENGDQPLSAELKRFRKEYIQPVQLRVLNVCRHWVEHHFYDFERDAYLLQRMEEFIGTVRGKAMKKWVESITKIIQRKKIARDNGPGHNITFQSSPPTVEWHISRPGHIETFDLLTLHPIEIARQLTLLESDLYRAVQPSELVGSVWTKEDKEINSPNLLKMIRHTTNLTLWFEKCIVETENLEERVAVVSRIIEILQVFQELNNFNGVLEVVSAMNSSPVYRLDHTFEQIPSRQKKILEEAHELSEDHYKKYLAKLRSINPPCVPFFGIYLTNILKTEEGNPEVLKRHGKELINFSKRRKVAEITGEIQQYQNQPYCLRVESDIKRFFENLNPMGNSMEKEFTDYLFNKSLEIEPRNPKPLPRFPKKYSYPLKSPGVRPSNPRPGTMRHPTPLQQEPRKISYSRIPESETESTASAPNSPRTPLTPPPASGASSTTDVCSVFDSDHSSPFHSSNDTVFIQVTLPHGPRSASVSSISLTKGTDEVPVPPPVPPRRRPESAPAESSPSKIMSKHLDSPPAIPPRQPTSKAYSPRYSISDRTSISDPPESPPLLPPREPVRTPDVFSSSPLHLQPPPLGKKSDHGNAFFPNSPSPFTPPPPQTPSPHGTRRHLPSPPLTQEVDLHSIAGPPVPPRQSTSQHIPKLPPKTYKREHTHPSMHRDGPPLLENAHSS

[2] = Cmax in ICR mouse at 20 mg/kg, po by LC-MS/MS analysis; assay type: ADME, organism-based; parameters: dose 20 mg/kg, route po; conditions: in vivo
[3] = Elimination rate constant in ICR mouse at 20 mg/kg, po by LC-MS/MS analysis; assay type: ADME, organism-based; conditions: in vivo; for k el: ICR; for Kel: po, 20 mg/kg
[4] = Tmax in ICR mouse at 20 mg/kg, po by LC-MS/MS analysis; assay type: ADME, organism-based; conditions: in vivo
[5] = MRT in ICR mouse at 20 mg/kg, po by LC-MS/MS analysis; assay type: ADME, organism-based; conditions: in vivo
[6] = AUC in ICR mouse at 20 mg/kg, po by LC-MS/MS analysis; assay type: ADME, organism-based; parameters: dose 20 mg/kg, route po; conditions: in vivo
[7] = Half life in ICR mouse at 20 mg/kg, po by LC-MS/MS analysis; assay type: ADME, organism-based; conditions: in vivo; for half-life: ICR; for t1/2: po, 20 mg/kg

Question: For `CC(=O)N1CCN2c3cc4c(N[C@H](C)c5cc(N)cc(C(F)(F)F)c5)nc(C)nc4cc3OC[C@@H]2C1`, which IC50 [1] is on record?
Answer: 48 nM

Question: And the IC50 (SOS1-KRAS)?
Answer: 12.8 nM

Question: Which IC50 [1] does the source give for `Cc1nc(N[C@H](C)c2cc(N)cc(C(F)(F)F)c2)c2cc3c(cc2n1)OC[C@H]1CN(C)CCN31` here?
Answer: 11 nM

Question: What about the IC50 (SOS1-KRAS) of the same molecule?
Answer: 7.3 nM

Question: With `Cc1nc(N[C@H](C)c2cccc(C(F)F)c2F)c2cc3c(cc2n1)OC[C@H]1CN(C(=O)C2C(C)(C)C2(C)C)CCN31` as the molecule, how does the IC50 [1] read?
Answer: 9 nM

Question: What does the source list for `Cc1nc(N[C@H](C)c2cccc(C(F)F)c2F)c2cc3c(cc2n1)OC[C@H]1CN(C(=O)N(C)C)CCN31`?
Answer: Cmax [2]: 621 ng/mL; k el [3]: 2.5e-05 s⁻¹; IC50 [1]: 2.9 nM; Tmax [4]: 3 h; MRT [5]: 4.2 h; AUC [6]: 3980 ng·h/mL; half-life [7]: 738 min

Question: Which IC50 [1] does the source give for `CC(=O)N1CCOc2cc3nc(C)nc(N[C@H](C)c4cc(N)cc(C(F)(F)F)c4)c3cc21` here?
Answer: 780 nM

Question: What about the IC50 (SOS1-KRAS) of the same molecule?
Answer: 122 nM

Question: Which IC50 [1] does the source give for `Cc1nc(N[C@H](C)c2cccc(C(F)F)c2F)c2cc3c(cc2n1)OC[C@H]1CN(C(=O)N2CCN(C)CC2)CCN31` here?
Answer: 99 nM

Question: For `Cc1nc(N[C@H](C)c2cccc(C(F)F)c2F)c2cc3c(cc2n1)OC[C@H]1CN(C(C)C)CCN31`, which IC50 [1] is on record?
Answer: 168 nM

Question: For `Cc1nc(N[C@H](C)c2cccc(C(F)F)c2F)c2cc3c(cc2n1)OC[C@H]1CN(C)CCN31`, which IC50 [1] is on record?
Answer: 86 nM

Question: Which Cmax [2] does the source give for `Cc1nc(N[C@H](C)c2cccc(C(F)F)c2F)c2cc3c(cc2n1)OC[C@H]1CN(C(=O)C2COC2)CCN31` here?
Answer: 260 ng/mL

Question: What about the k el [3] of the same molecule?
Answer: 5e-05 s⁻¹

Question: And the IC50 [1]?
Answer: 25 nM

Question: What about the Tmax [4] of the same molecule?
Answer: 3 h

Question: What about the MRT [5] of the same molecule?
Answer: 4.58 h

Question: And the AUC [6]?
Answer: 2010 ng·h/mL

Question: And the half-life [7]?
Answer: 224 min

Question: Which IC50 [1] does the source give for `Cc1nc(N[C@H](C)c2cccc(C(F)F)c2F)c2cc3c(cc2n1)OC[C@H]1CN(C(=O)[C@@H]2CCCN2C)CCN31` here?
Answer: 104 nM

Question: Which results are given for `CC(=O)N1CCN2c3cc4c(N[C@H](C)c5cccc(C(F)F)c5F)nc(C)nc4cc3OCC2C1` (stereo not given in full)?
Answer: IC50 [1]: 19 nM; IC50 (SOS1-KRAS): 8.8 nM

Question: Which Cmax [2] does the source give for `COCCC(=O)N1CCN2c3cc4c(N[C@H](C)c5cccc(C(F)F)c5F)nc(C)nc4cc3OC[C@H]2C1` here?
Answer: 674 ng/mL

Question: What about the k el [3] of the same molecule?
Answer: 5e-05 s⁻¹

Question: And the IC50 [1]?
Answer: 9.5 nM

Question: What about the Tmax [4] of the same molecule?
Answer: 2.92 h

Question: What about the MRT [5] of the same molecule?
Answer: 3.45 h

Question: What about the AUC [6] of the same molecule?
Answer: 3340 ng·h/mL

Question: What about the half-life [7] of the same molecule?
Answer: 231 min

Question: For `Cc1nc(N[C@H](C)c2cccc(C(F)F)c2F)c2cc3c(cc2n1)OC[C@H]1CN(C2CN(C)C2)CCN31`, which IC50 [1] is on record?
Answer: 166 nM

Question: Which results are given for `CNC(=O)N1CCN2c3cc4c(N[C@H](C)c5cccc(C(F)F)c5F)nc(C)nc4cc3OC[C@H]2C1`?
Answer: Cmax [2]: 751 ng/mL; Kel [3]: 0.26 h⁻¹; IC50 [1]: 15 nM; Tmax [4]: 8 h; MRT [5]: 5.62 h; AUC [6]: 2830 ng·h/mL; t1/2 [7]: 14.5 h

Question: Which IC50 [1] does the source give for `CC(=O)N1CCN2c3cc4c(N[C@H](C)c5cccc(C(F)F)c5F)nc(C)nc4cc3OC[C@@H]2C1` here?
Answer: 38 nM

Question: And the IC50 (SOS1-KRAS)?
Answer: 13.8 nM

Question: With `Cc1nc(N[C@H](C)c2cccc(C(F)F)c2F)c2cc3c(cc2n1)OC[C@H]1CN(C(=O)[C@@H]2CCOC2)CCN31` as the molecule, how does the Cmax [2] read?
Answer: 47 ng/mL

Question: What about the k el [3] of the same molecule?
Answer: 8.33e-06 s⁻¹

Question: And the IC50 [1]?
Answer: 21 nM

Question: What about the Tmax [4] of the same molecule?
Answer: 8 h

Question: What about the MRT [5] of the same molecule?
Answer: 9.65 h

Question: What about the AUC [6] of the same molecule?
Answer: 780 ng·h/mL

Question: And the half-life [7]?
Answer: 1080 min

Question: For `Cc1nc(N[C@H](C)c2cccc(C(F)F)c2F)c2cc3c(cc2n1)OC[C@H]1CN(C(=O)C2CCO2)CCN31` (stereo not given in full), which Cmax [2] is on record?
Answer: 97.1 ng/mL

Question: And the Kel [3]?
Answer: 0.13 h⁻¹

Question: And the IC50 [1]?
Answer: 16 nM

Question: What about the Tmax [4] of the same molecule?
Answer: 5.67 h

Question: And the MRT [5]?
Answer: 4.55 h

Question: And the AUC [6]?
Answer: 534 ng·h/mL

Question: And the t1/2 [7]?
Answer: 14.3 h

Question: Which IC50 [1] does the source give for `Cc1nc(N[C@H](C)c2cccc(C(F)F)c2F)c2cc3c(cc2n1)OC[C@H]1CN(C(=O)C2(C)CC2)CCN31` here?
Answer: > 1000 nM

Question: For `Cc1nc(N[C@H](C)c2cccc(C(F)F)c2F)c2cc3c(cc2n1)OC[C@H]1CN(C(=O)c2ccn[nH]2)CCN31`, which IC50 [1] is on record?
Answer: 376 nM

Question: For `Cc1nc(N[C@H](C)c2cccc(C(F)F)c2F)c2cc3c(cc2n1)OC[C@H]1CN(S(C)(=O)=O)CCN31`, which IC50 [1] is on record?
Answer: 79 nM

Question: With `COC(=O)N1CCN2c3cc4c(N[C@H](C)c5cccc(C(F)F)c5F)nc(C)nc4cc3OC[C@H]2C1` as the molecule, how does the IC50 [1] read?
Answer: 22 nM

Question: Which IC50 [1] does the source give for `Cc1nc(N[C@H](C)c2cccc(C(F)F)c2F)c2cc3c(cc2n1)OC[C@H]1CN(C2CCOCC2)CCN31` here?
Answer: 57 nM

Question: What does the source list for `Cc1nc(N[C@H](C)c2cc(N)cc(C(F)(F)F)c2)c2cc3c(cc2n1)OC[C@H]1CN(C2COC2)CCN31`?
Answer: IC50 [1]: 45 nM; IC50 (SOS1-KRAS): 15.6 nM
